According to the NIST ThermoML archive (doi:10.1021/je600519p):
Numbers after ± are expanded uncertainties.

Assay: refractive index (Na D-line) (dimensionless); xn = mol fraction of the nth substance listed
Details: 101 kPa, Liquid

CC(=O)c1ccccc1 [acetophenone] + CCOC(=O)OCC
refractive index
Details	293.15 K	303.15 K	313.15 K	323.15 K
x2 = 0.0511	1.5269 ± 0.0013	1.5221 ± 0.0013	1.5172 ± 0.0013	1.5123 ± 0.0013
x2 = 0.1014	1.5201 ± 0.0013	1.5154 ± 0.0013	1.5107 ± 0.0013	1.506 ± 0.0013
x2 = 0.1501	1.5134 ± 0.0013	1.5089 ± 0.0013	1.5043 ± 0.0013	1.4998 ± 0.0013
x2 = 0.1996	1.5065 ± 0.0013	1.5022 ± 0.0013	1.4976 ± 0.0013	1.4932 ± 0.0013
x2 = 0.2465	1.5001 ± 0.0013	1.4958 ± 0.0013	1.4913 ± 0.0013	1.4869 ± 0.0013
x2 = 0.3041	1.4919 ± 0.0013	1.4877 ± 0.0013	1.4833 ± 0.0013	1.479 ± 0.0013
x2 = 0.3467	1.4858 ± 0.0013	1.4817 ± 0.0013	1.4774 ± 0.0013	1.4731 ± 0.0013
x2 = 0.4001	1.4781 ± 0.0013	1.474 ± 0.0013	1.4697 ± 0.0013	1.4656 ± 0.0013
x2 = 0.4507	1.4707 ± 0.0013	1.4666 ± 0.0013	1.4624 ± 0.0013	1.4583 ± 0.0013
x2 = 0.4888	1.4651 ± 0.0013	1.461 ± 0.0013	1.4568 ± 0.0013	1.4527 ± 0.0013
x2 = 0.5506	1.4558 ± 0.0013	1.4518 ± 0.0013	1.4475 ± 0.0013	1.4435 ± 0.0013
x2 = 0.6038	1.4477 ± 0.0012	1.4437 ± 0.0012	1.4395 ± 0.0012	1.4353 ± 0.0012
x2 = 0.6498	1.4406 ± 0.0012	1.4366 ± 0.0012	1.4323 ± 0.0012	1.4282 ± 0.0012
x2 = 0.7104	1.4312 ± 0.0012	1.4271 ± 0.0012	1.4228 ± 0.0012	1.4186 ± 0.0012
x2 = 0.7513	1.4247 ± 0.0012	1.4206 ± 0.0012	1.4164 ± 0.0012	1.4121 ± 0.0012
x2 = 0.8078	1.4158 ± 0.0012	1.4116 ± 0.0012	1.4072 ± 0.0012	1.4029 ± 0.0012
x2 = 0.8522	1.4086 ± 0.0012	1.4043 ± 0.0012	1.3999 ± 0.0012	1.3957 ± 0.0012
x2 = 0.8993	1.401 ± 0.0012	1.3966 ± 0.0012	1.3922 ± 0.0012	1.3878 ± 0.0012
x2 = 0.9488	1.3929 ± 0.0012	1.3884 ± 0.0012	1.3839 ± 0.0012	1.3791 ± 0.0012

CCOC(=O)OCC [diethyl carbonate] + CCCCCCO
refractive index
Details	293.15 K	303.15 K	313.15 K	323.15 K
x1 = 0.0502	1.4168 ± 0.0013	1.4131 ± 0.0013	1.4089 ± 0.0013	1.4049 ± 0.0013
x1 = 0.1123	1.4152 ± 0.0013	1.4115 ± 0.0013	1.4075 ± 0.0013	1.4036 ± 0.0013
x1 = 0.1499	1.4143 ± 0.0013	1.4106 ± 0.0013	1.4065 ± 0.0013	1.4026 ± 0.0013
x1 = 0.2103	1.4125 ± 0.0013	1.4088 ± 0.0013	1.4047 ± 0.0013	1.4007 ± 0.0013
x1 = 0.2508	1.4111 ± 0.0013	1.4074 ± 0.0013	1.4034 ± 0.0013	1.3994 ± 0.0013
x1 = 0.3121	1.4089 ± 0.0013	1.4051 ± 0.0013	1.4011 ± 0.0013	1.3971 ± 0.0013
x1 = 0.3576	1.4071 ± 0.0013	1.4033 ± 0.0013	1.3992 ± 0.0013	1.3953 ± 0.0013
x1 = 0.4113	1.4049 ± 0.0013	1.4011 ± 0.0013	1.3969 ± 0.0013	1.3931 ± 0.0013
x1 = 0.4632	1.4028 ± 0.0013	1.3989 ± 0.0013	1.3947 ± 0.0013	1.3909 ± 0.0013
x1 = 0.5111	1.4008 ± 0.0012	1.3969 ± 0.0012	1.3927 ± 0.0012	1.3887 ± 0.0012
x1 = 0.552	1.3991 ± 0.0012	1.3952 ± 0.0012	1.3909 ± 0.0012	1.3868 ± 0.0012
x1 = 0.6008	1.3972 ± 0.0012	1.3931 ± 0.0012	1.3888 ± 0.0012	1.3846 ± 0.0012
x1 = 0.6498	1.3953 ± 0.0012	1.3911 ± 0.0012	1.3867 ± 0.0012	1.3825 ± 0.0012
x1 = 0.7108	1.3929 ± 0.0012	1.3887 ± 0.0012	1.3842 ± 0.0012	1.3798 ± 0.0012
x1 = 0.7554	1.3912 ± 0.0012	1.387 ± 0.0012	1.3825 ± 0.0012	1.3779 ± 0.0012
x1 = 0.8112	1.3894 ± 0.0012	1.3851 ± 0.0012	1.3805 ± 0.0012	1.3758 ± 0.0012
x1 = 0.8501	1.3883 ± 0.0012	1.3838 ± 0.0012	1.3792 ± 0.0012	1.3745 ± 0.0012
x1 = 0.9002	1.3869 ± 0.0012	1.3823 ± 0.0012	1.3776 ± 0.0012	1.3729 ± 0.0012
x1 = 0.9555	1.3855 ± 0.0012	1.3809 ± 0.0012	1.3762 ± 0.0012	1.3714 ± 0.0012

CC(=O)c1ccccc1 [acetophenone] + CCCCCCO
refractive index
Details	293.15 K	303.15 K	313.15 K	323.15 K
x1 = 0.0498	1.4234 ± 0.0013	1.4196 ± 0.0013	1.4153 ± 0.0013	1.4113 ± 0.0013
x1 = 0.1009	1.4291 ± 0.0013	1.4253 ± 0.0013	1.421 ± 0.0013	1.417 ± 0.0013
x1 = 0.1517	1.4348 ± 0.0013	1.431 ± 0.0013	1.4267 ± 0.0013	1.4227 ± 0.0013
x1 = 0.2106	1.4415 ± 0.0013	1.4377 ± 0.0013	1.4334 ± 0.0013	1.4293 ± 0.0013
x1 = 0.2474	1.4457 ± 0.0013	1.4419 ± 0.0013	1.4376 ± 0.0013	1.4335 ± 0.0013
x1 = 0.3028	1.4521 ± 0.0013	1.4482 ± 0.0013	1.4439 ± 0.0013	1.4398 ± 0.0013
x1 = 0.3426	1.4567 ± 0.0013	1.4528 ± 0.0013	1.4484 ± 0.0013	1.4443 ± 0.0013
x1 = 0.3978	1.4631 ± 0.0013	1.4591 ± 0.0013	1.4547 ± 0.0013	1.4506 ± 0.0013
x1 = 0.4512	1.4693 ± 0.0013	1.4653 ± 0.0013	1.4608 ± 0.0013	1.4567 ± 0.0013
x1 = 0.4985	1.4748 ± 0.0013	1.4707 ± 0.0013	1.4662 ± 0.0013	1.4621 ± 0.0013
x1 = 0.5526	1.4811 ± 0.0013	1.4769 ± 0.0013	1.4724 ± 0.0013	1.4682 ± 0.0013
x1 = 0.6071	1.4874 ± 0.0013	1.4832 ± 0.0013	1.4786 ± 0.0013	1.4743 ± 0.0013
x1 = 0.6491	1.4923 ± 0.0013	1.488 ± 0.0013	1.4834 ± 0.0013	1.479 ± 0.0013
x1 = 0.7101	1.4994 ± 0.0013	1.495 ± 0.0013	1.4903 ± 0.0013	1.4858 ± 0.0013
x1 = 0.7485	1.5039 ± 0.0013	1.4994 ± 0.0013	1.4947 ± 0.0013	1.4901 ± 0.0013
x1 = 0.8019	1.5101 ± 0.0013	1.5056 ± 0.0013	1.5008 ± 0.0013	1.4962 ± 0.0013
x1 = 0.8521	1.516 ± 0.0013	1.5114 ± 0.0013	1.5066 ± 0.0013	1.5019 ± 0.0013
x1 = 0.9045	1.5222 ± 0.0013	1.5175 ± 0.0013	1.5126 ± 0.0013	1.5079 ± 0.0013
x1 = 0.9554	1.5283 ± 0.0013	1.5235 ± 0.0013	1.5185 ± 0.0013	1.5137 ± 0.0013
